Where two headings read alike, the source gives them in different places.
Columns and labels:
VCaP cells = experiment: Cellular growth inhibition assay for VCaP cells (CellTiter-Glo, 72 hours); assay type: cell-based, human
How it was run: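 Luminescent viability signal after 72 h of compound exposure gave GI50 values by four-parameter nonlinear regression. Compounds were added in 0.5% DMSO to cells plated 24 h earlier at 5000/well in DMEM containing 10% FBS.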

[1] = system: T-Rex 293 cell line SC3 cells having increased expression of androgen receptor protein due to exposure to doxycycline; experiment: Cellular growth inhibition assay, T-Rex 293 SC3 cells with doxycycline (CellTiter-Glo, 72 hours); assay type: cell-based; settings: T-Rex 293 SC3 cells with increased androgen receptor expression due to doxycycline (10 ng/mL)
How it was run: (§1)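 Doxycycline (10 ng/mL) was either included or omitted to toggle wild-type androgen receptor expression in SC3 cells, a T-Rex 293 clone, grown in stripped-serum, phenol red-free medium. After 72 hours with compound, viable cells were quantified by CellTiter-Glo 2.0.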

[2] = system: T-Rex 293 cell line SC3 cells lacking increased expression of androgen receptor protein; experiment: Cellular growth inhibition assay, T-Rex 293 SC3 cells without doxycycline (CellTiter-Glo, 72 hours); assay type: cell-based; settings: T-Rex 293 cell line SC3 cells not exposed to doxycycline (lacking increased androgen receptor expression)
How it was run: as §1

T47D cells = experiment: Cellular growth inhibition assay for T47D cells (CellTiter-Glo, 72 hours); assay type: cell-based, human; settings: 72 hours treatment
How it was run: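 Luminescence from CellTiter-Glo 2.0 after 72 h of compound exposure gives the viability signal. Cells grew in insulin-supplemented (0.2 units/mL) DMEM with 10% FBS and were treated one day after seeding at 0.5% DMSO. GI50 values come from four-parameter nonlinear regression.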

SMILES | GI50 (VCaP cells; Homo sapiens, VCaP, 72 h) | GI50 ([1]; 72 h) | GI50 ([2]; 72 h) | GI50 (T47D cells; Homo sapiens, T47D, 72 h) | GI50 (VCaP cells) | GI50 [1] | GI50 [2] | GI50 (T47D cells)
Cc1sc2c(c1C)C(c1ccc(CC3CC4(CCN(c5ccc(C(=O)N[C@H]6CC[C@H](Oc7ccc(C#N)c(Cl)c7)CC6)nn5)CC4)C3)cc1)=N[C@@H](C)c1nnc(C)n1-2 [I-335] | < 500 nM | < 500 nM | > 3000 nM | < 500 nM | – | – | – | –
Cc1sc2c(c1C)C(c1ccc(C(=O)N3CCN(CCc4ccc(C(=O)N[C@H]5CC[C@H](Oc6ccc(C#N)c(Cl)c6)CC5)nn4)CC3)cc1)=N[C@H](Cc1ncco1)c1nnc(C)n1-2 [I-314] | 500 to 1500 nM | 500 to 1500 nM | > 3000 nM | 1500 to 3000 nM | – | – | – | –
Cc1sc2c(c1C)C(c1ccc(N3CCC4(CCCN(c5ccc(C(=O)N[C@H]6CC[C@H](Oc7ccc(C#N)c(Cl)c7)CC6)nn5)C4)CC3)nc1)=N[C@@H](C)c1nnc(C)n1-2 [I-428] | < 500 nM | < 500 nM | > 3000 nM | 500 to 1500 nM | – | – | – | –
Cc1sc2c(c1C)C(c1ccc(N3CCC[C@H](C(=O)N4CCC[C@H](c5ccc(C(=O)N[C@H]6CC[C@H](Oc7ccc(C#N)c(Cl)c7)CC6)nn5)C4)C3)cc1)=N[C@@H](Cc1ncco1)c1nnc(C)n1-2 [I-301] | < 500 nM | < 500 nM | < 500 nM | < 500 nM | – | – | – | –
Cc1sc2c(c1C)C(c1ccc(CCC[C@@H]3CCCN(c4ccc(C(=O)N[C@H]5CC[C@H](Oc6ccc(C#N)c(Cl)c6)CC5)nn4)C3)cc1)=N[C@@H](Cc1ncco1)c1nnc(C)n1-2 [I-276] | < 500 nM | < 500 nM | < 500 nM | < 500 nM | – | – | – | –
CNc1ccc2c(n1)C(c1ccc(OC3CC4(CCCN(c5ccc(C(=O)N[C@H]6CC[C@H](Oc7ccc(C#N)c(Cl)c7)CC6)nn5)C4)C3)cc1)=NCc1onc(C)c1-2 (stereo partly drawn) [I-107] | > 3000 nM | < 500 nM | > 3000 nM | > 3000 nM | – | – | – | –
Cc1sc2c(c1C)C(c1ccc(CC3CCC4(CC3)CCN(c3ccc(C(=O)N[C@H]5CC[C@H](Oc6ccc(C#N)c(Cl)c6)CC5)nn3)CC4)cc1)=N[C@@H](Cc1ncco1)c1nnc(C)n1-2 [I-365] | – | – | – | – | < 500 nM | < 500 nM | 500 to 1500 nM | < 500 nM
Cc1sc2c(c1C)C(c1ccc(CCC[C@@H]3CCCN(c4ccc(C(=O)N[C@H]5CC[C@H](Oc6ccc(C#N)c(Cl)c6)CC5)nn4)CC3)cc1)=N[C@@H](Cc1ncco1)c1nnc(C)n1-2 [I-411] | < 500 nM | < 500 nM | < 500 nM | < 500 nM | – | – | – | –
Cc1sc2c(c1C)C(c1ccc(N3CCC[C@H](C(=O)N4CCC[C@@H](c5ccc(C(=O)N[C@H]6CC[C@H](Oc7ccc(C#N)c(Cl)c7)CC6)nn5)C4)C3)cc1)=N[C@H](Cc1ncco1)c1nnc(C)n1-2 [I-304] | > 3000 nM | > 3000 nM | > 3000 nM | > 3000 nM | – | – | – | –
Cc1sc2c(c1C)C(c1ccc(C(C)(C)N3CC4(CCCN(c5ccc(C(=O)N[C@H]6CC[C@H](Oc7ccc(C#N)c(Cl)c7)CC6)nn5)C4)C3)cc1)=N[C@@H](Cc1ncco1)c1nnc(C)n1-2 [I-392] | 500 to 1500 nM | < 500 nM | > 3000 nM | > 3000 nM | – | – | – | –
Cc1sc2c(c1C)C(c1ccc([C@H]3CC[C@H](N4CCCN(c5ccc(C(=O)N[C@H]6CC[C@H](Oc7ccc(C#N)c(Cl)c7)CC6)nn5)CC4)CC3)cc1)=N[C@@H](Cc1ncco1)c1nnc(C)n1-2 [I-236] | > 3000 nM | < 500 nM | > 3000 nM | > 3000 nM | – | – | – | –
Cc1sc2c(c1C)C(c1ccc(C[C@H]3CC[C@@]4(CCCN(c5ccc(C(=O)N[C@H]6CC[C@H](Oc7ccc(C#N)c(Cl)c7)CC6)nn5)C4)C3)cc1)=N[C@@H](Cc1ncco1)c1nnc(C)n1-2 [I-123] | 1500 to 3000 nM | 1500 to 3000 nM | > 3000 nM | 1500 to 3000 nM | – | – | – | –
Cc1sc2c(c1C)C(c1ccc(OCCC3CCN(c4ccc(C(=O)N[C@H]5CC[C@H](Oc6ccc(C#N)c(Cl)c6)CC5)nn4)CC3)cc1)=NC(Cc1ncco1)c1nnc(C)n1-2 (stereo partly drawn) [I-78] | < 500 nM | < 500 nM | < 500 nM | < 500 nM | – | – | – | –
Cc1sc2c(c1C)C(c1ccc(OC[C@H]3C[C@@]4(CCCN(c5ccc(C(=O)N[C@H]6CC[C@H](Oc7ccc(C#N)c(Cl)c7)CC6)nn5)C4)C3)cn1)=N[C@@H](Cc1ncco1)c1nnc(C)n1-2 [I-340] | < 500 nM | < 500 nM | < 500 nM | < 500 nM | – | – | – | –
Cc1sc2c(c1C)C(c1ccc(C(=O)N3CCN(Cc4ccc(C(=O)N[C@H]5CC[C@H](Oc6ccc(C#N)c(Cl)c6)CC5)nn4)CC3)cc1)=N[C@@H](Cc1ncco1)c1nnc(C)n1-2 [I-290] | > 3000 nM | > 3000 nM | > 3000 nM | > 3000 nM | – | – | – | –

— US20260109707A1, “HETEROBIFUNCTIONAL COMPOUNDS AND METHODS OF TREATING DISEASE” (Halda Therapeutics OpCo. Inc., priority 2022, published 2026)
